Data taken from patent US6083941A, “Inhibition of NMDA receptor activity by pregnenolone sulfate derivatives” (Trustees of Boston University, priority 1998, dated 2000).
≈ marks a conversion by molar mass, not a printed value. Structures can show the parent of a compound that is named as a salt. Where two headings read alike, the source gives them in different places.

Key:
NMDA receptor = experiment: Whole cell patch clamp, NMDA-induced current in cultured chick spinal cord neurons; type: cell-based; settings: for inhibition of the NMDA response by extracellular steroid: 100 μM extracellular; for IC50: read-out: IC50 for inhibition of the NMDA response
Method: (§1) Cultures of dissociated spinal cord neurons were prepared as previously described (Farb, D. H., et al., J. Cell Biol., 80:651-661 (1979)). Briefly, the dissociated cells from 7-day chick embryos were plated on collagen-coated 35-mm tissue culture dishes in Eagle's minimum essential medium supplemented with 2.4 mM glutamine, 10% (v/v) heat-inactivated horse serum, 5% (v/v) chick embryo extract and antibiotics. Cultures were maintained in a humidified atmosphere of 5% CO2, 95% air at 37°. Cytarabine (1 μM) was added to the culture medium after 36 hr. of the initial plating to inhibit the proliferation of non-neuronal cells. One day later, this medium was replaced with a similar medium supplemented with 20.5 mM glucose, 19 mM KCl, and 2.5% chick embryo extract. Fresh medium was added twice weekly. Cultured neurons were used in experiments within 2-4 weeks after plating.
Experiments were carried out in 35-mm tissue culture dishes on the stage of an inverted phase contrast microscope. Whole cell currents were recorded by the whole cell variant of the patch clamp technique (Hamill, O. P., et al., Pfagers Arch. 891:85-100 (1981)). Patch electrodes had tip openings of about […] and resistances of 3-8 M.OMEGA. using an intracellular solution comprised of the following (in mM): 140 CsCl, 11 EGTA, and 10 HEPES (pH adjusted to 7.2 with CsOH). In experiments in which a high concentration of glycine was used, the intracellular solution was replaced with a low chloride (10 mM) pipette solution. This solution contained the following (in mM): 140 potassium gluconate, 10 KCl, 8 sodium gluconate, 11 EGTA, and 10 HEPES (pH adjusted to 7.2 with KOH). To prevent a marked run-down of NMDA-induced current at high NMDA concentrations, 4 mM potassium ATP was included in the intracellular solution. The bath solution contained the following (in mM): 150 NaCl, 4 KCl, 1 CaCl2, and 10 HEPES (pH adjusted to 7.2 with NaOH). No glycine was added to the solutions containing NMDA, because no additional glycine was required to obtain a robust NMDA response, and there was no effect of a maximal concentration (10 μM) of glycine on 5β3αS inhibition of the NMDA response. All experiments were performed at room temperature (23-25° C.).
Recordings were made using an Axopatch 1B patch clamp apparatus (Axon Instruments, Burlingame, Calif.). Cells with series resistances greater than 10 M.OMEGA. were rejected. After partial compensation, series resistances were between 3.5 and 6 M.OMEGA.. The holding potential was maintained at -70 mV unless otherwise noted. Currents were filtered at 1 kHz using an eight-pole Bessel filter (-3 dB) and digitized ([…]) using an on-line data acquisition system (pClamp, Axon Instruments).
Drug solutions were applied to single neurons by pressure ejection (15 psi) from seven-barrel pipettes. Seven-barrel pressure pipettes were positioned approximately […] from the neuronal soma. Under these conditions, the drug solution in the pressure pipette rapidly and effectively replaces the solution surrounding the target neurons with less than 10% dilution (Choi, D. W., et al., Nature (Lond.) 269:342-344 (1977); Chan, C. Y., et al., Life Sci., 83:2061-2069 (1983); Chan, C. Y. and Farb, D. H., J. Neurosci., 5:2365-2373 (1985)). All drugs were obtained from Sigma, with the except of AMPA hydrobromide (Research Biochemicals) and steroids (Steraloids). Stock solutions of steroids were prepared in dimethyl sulfoxide, the final concentration of which was 0.5% (v/v). To obviate the possible effects of dimethyl sulfoxide on the relevant agonist-induced currents, all other drug solutions including NMDA, kainate, AMPA and external buffer (in the pressure pipette) also contained 0.5% dimethyl sulfoxide. […]

[1] = Maximal solubility in the external buffer; type: physicochemical; settings: pH 7.2, aqueous buffer, 0.5% dimethyl sulfoxide
kainate receptors = experiment: Whole cell patch clamp, kainate-induced current in cultured chick spinal cord neurons; type: cell-based; settings: 100 μM steroid; -70 mV
Method: as §1
(§2) Experiments were carried out in 35-mm tissue culture dishes on the stage of an inverted phase contrast microscope. Whole cell currents were recorded by the whole cell variant of the patch clamp technique (Hamill, O. P., et al., Pfagers Arch. 891:85-100 (1981)). Patch electrodes had tip openings of about […] and resistances of 3-8 M.OMEGA. using an intracellular solution comprised of the following (in mM): 140 CsCl, 11 EGTA, and 10 HEPES (pH adjusted to 7.2 with CsOH). […]

AMPA receptors = experiment: Whole cell patch clamp, AMPA-induced current in cultured chick spinal cord neurons; type: cell-based; settings: 100 μM steroid; -70 mV
Method: as §1, §2

[2] = target: T1, recombinant NMDA receptors (NR1100 and NR2A subunits) (Rattus norvegicus, UniProt P35439+Q00959); experiment: Two electrode voltage-clamp of Xenopus oocytes expressing recombinant NMDA receptors; type: cell-based
T1 construct: expressed in transfected cells; host or cells: Xenopus laevis oocytes injected with in vitro transcribed mRNA
T1 sequence (Q00959 23-1464, other chains not shown): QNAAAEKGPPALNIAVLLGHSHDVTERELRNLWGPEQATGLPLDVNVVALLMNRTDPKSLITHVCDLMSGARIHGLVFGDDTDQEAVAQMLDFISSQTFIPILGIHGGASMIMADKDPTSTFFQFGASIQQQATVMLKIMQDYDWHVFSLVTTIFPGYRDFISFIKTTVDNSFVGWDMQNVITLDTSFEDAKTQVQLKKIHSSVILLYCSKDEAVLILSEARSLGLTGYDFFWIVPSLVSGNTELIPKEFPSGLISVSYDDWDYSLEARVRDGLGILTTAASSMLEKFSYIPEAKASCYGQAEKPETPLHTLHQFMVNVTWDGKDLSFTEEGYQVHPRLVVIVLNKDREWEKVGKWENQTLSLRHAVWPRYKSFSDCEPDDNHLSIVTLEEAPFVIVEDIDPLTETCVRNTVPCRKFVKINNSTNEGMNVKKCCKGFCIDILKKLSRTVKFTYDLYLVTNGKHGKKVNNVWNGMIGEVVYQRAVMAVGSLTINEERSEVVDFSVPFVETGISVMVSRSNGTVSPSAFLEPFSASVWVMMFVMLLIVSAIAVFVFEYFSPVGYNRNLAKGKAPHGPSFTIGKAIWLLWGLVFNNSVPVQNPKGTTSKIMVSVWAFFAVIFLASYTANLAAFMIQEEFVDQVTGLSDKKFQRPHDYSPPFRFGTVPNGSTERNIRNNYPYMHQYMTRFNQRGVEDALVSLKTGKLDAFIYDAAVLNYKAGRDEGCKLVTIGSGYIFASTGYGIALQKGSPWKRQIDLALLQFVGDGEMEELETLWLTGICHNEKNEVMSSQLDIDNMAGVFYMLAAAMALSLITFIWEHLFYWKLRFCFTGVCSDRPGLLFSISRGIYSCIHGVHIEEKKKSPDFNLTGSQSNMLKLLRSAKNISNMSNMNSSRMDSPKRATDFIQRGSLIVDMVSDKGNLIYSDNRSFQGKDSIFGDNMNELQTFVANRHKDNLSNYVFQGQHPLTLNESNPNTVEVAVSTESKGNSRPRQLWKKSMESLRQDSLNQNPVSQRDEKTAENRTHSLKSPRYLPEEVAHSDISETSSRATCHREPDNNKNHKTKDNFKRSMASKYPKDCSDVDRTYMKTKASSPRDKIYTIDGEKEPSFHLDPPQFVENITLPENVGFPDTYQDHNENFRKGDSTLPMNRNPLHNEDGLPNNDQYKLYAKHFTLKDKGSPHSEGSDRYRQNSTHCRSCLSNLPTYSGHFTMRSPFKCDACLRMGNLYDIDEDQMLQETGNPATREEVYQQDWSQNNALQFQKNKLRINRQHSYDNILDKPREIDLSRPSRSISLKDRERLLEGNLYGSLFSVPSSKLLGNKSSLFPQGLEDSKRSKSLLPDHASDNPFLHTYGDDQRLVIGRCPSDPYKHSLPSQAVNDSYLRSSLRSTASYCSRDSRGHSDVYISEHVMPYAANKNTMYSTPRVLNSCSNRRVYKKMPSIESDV
Method: RNA preparation. mRNA were prepared through in vitro transcription of NR1100 and NR2A cDNAs using the mMessage mMachine kit (Ambion, Tex.). NR1100 and NR2A clones were kindly provided by Dr. Zukin and Dr. Nakanishie.
Xenopus expression system. Female, oocyte positive Xenopus laevis frogs were purchased from Nasco, Inc. (WI). The frogs were kept on a 12/12 light-dark cycle and maintained on a diet of chopped calf liver every 3 days. Prior to surgery, frogs were anesthetized in a 0.15% Tricaine solution (Sigma, Mo.) for 30-45 minutes. Ovarian sections containing the follicular oocytes were removed through a lateral abdominal incision and were immediately placed in calcium-free ND96 solution (in mM):96 NaCl; 1 MgCl2; 2 KCl; 5 Hepes; 2.5 pyruvate (pH adjusted to 7.4 with NaOH). Following a 2 hr. incubation in 0.2% collagenase type II (Sigma, Mo.) at room temperature, individual defolliculated oocytes were transferred into 60×15 mm glass petri dishes containing ND96 solution (in mM): 96 NaCl; 1 MgCl2; 2 KCl; 1.8 CaCl2; 5 Hepes; 2.5 pyruvate (pH adjusted to 7.4 with NaOH). The isolated oocytes were maintained in an incubator at 18° C. On the following date, batches of 20-40 selected oocytes (Dumont stage V and VI) were injected with 50 nl of prepared RNA solution (0.5 ng of NR1 and 12 ng of NR2A mRNAs per oocyte) using an electronic microinjector (Drummond, Pa.). The injected oocytes were used for electrophysiological experiments following 4-10 day incubation at 18° C.
Electrical recording and drug application. The ion current recordings were obtained in two electrodes voltage-clamp mode using an Axoclamp-2A amplifier (Axon Instruments, Inc., CA). The microelectrodes were fabricated with a programmed puller (Sutter Instrument Co., CA) from glass capillaries (Dagan, Minn.) and filled with 3M KCl solution. The resistance of filled microelectrodes was in the range of 2.5-3.5 M.OMEGA.. The oocytes were clamped at a holding potential of -70 mV. The membrane current was filtered at 500 Hz and sampled at 100 Hz frequency. The drugs were applied using a gravity driven external perfusion system. The data acquisition and external perfusion control were done using SuperScopeII software package (GW Instruments, MA). All experiments were performed at room temperature of 22-24° C.
The degree of modulation of the amino acid response by steroids, the percent change, was defined at (I'/I-1)×100%, where I and I' are respectively the agonist-induced currents in the absence and presence of steroid. Throughout, results are expressed as mean±SEM; statistical comparison of groups was carried out using Student's t test.

mice = experiment: Behavioral observational assessment after i.p. steroid; type: in vivo; settings: 25 mg/kg i.p., 30 min. after injection
Method: To test for behavioral effects, PS, 5β3αS, 5β3αHS, βE2 (17)HS, or βE2 (3)HS (7 mg/ml in DMSO) was administered to mice i.p. at 25 mg/kg (5 animals per drug group). Behavioral assessments were made 30 min. after injection using a comprehensive observational assessment of motor-affective responses, sensory-motor responses, posture, muscle tone, equilibration, CNS excitation, and autonomic function (Irwin, R. P., et al., NeuroSci. Lett., 141:30-44 (1968)). […] The latency to loss of righting reflex was 2.5±0.5 min., and the latency to regain the righting reflex was 83±11 min. The rapidity of onset argues that 5β3αHS readily crosses the blood brain barrier.

[3] = tested on: NMDA-induced seizure and death in mice; experiment: NMDA-induced seizure and death (100 mg/kg NMDA challenge); type: in vivo; settings: steroid 25 mg/kg i.p., DMSO 50%
Method: 5β3αHS (25 mg/kg, i.p.) protects mice from NMDA-induced death. None of the steroids tested altered the latency to NMDA-induced seizure. However, 100% of the animals that received 5β3αHS survived the 100 mg/kg NMDA challenge compared to 50% for DMSO, 75% for 5β3αS and E2 (3)HS, and 50% for E2 (17)HS.

[4] = tested on: NMDA-induced convulsion and mortality in mice; experiment: NMDA-induced convulsion test (200 mg/kg NMDA); type: in vivo; settings: mice, i.v. administration, FIG. 8
Method: Male CD-1 mice (Charles River Laboratories, Wilmington, Mass.) weighing 20-25 g were used for the NMDA-induced convulsion test. Mice were injected intraperitoneally with the test compound dissolved in DMSO or with vehicle. NMDA (200 mg/kg, i.p.) was injected either 2 minutes after intravenous injection of test compound or 20 minutes after intraperitoneal injection of test compound.

[5] = 200 μM steroid in the absence of PS
[6] = 200 μM steroid in the presence of 200 μM PS

CC(=O)[C@H]1CC[C@H]2[C@@H]3CC[C@@H]4C[C@H](O)CC[C@]4(C)[C@H]3CC[C@]12C [5β3α, reference compound]
potentiation of the 30 μM NMDA-induced current (NMDA receptor; 50 μM nonsulfated steroid): 3.6±8.4% | effect on the NMDA response (NMDA receptor; 60 μM nonsulfated steroid): does not produce any significant effect | solubility [1]: 50 µM (≈ 15.9 µg/mL)

CC(=O)[C@H]1CC[C@H]2[C@@H]3CC[C@@H]4C[C@@H](OS(=O)(=O)O)CC[C@]4(C)[C@H]3CC[C@]12C [5β3βS, 3β-hydroxy-5β-pregnan-20-one sulfate]
inhibition of the NMDA response by extracellular steroid (NMDA receptor; in the absence of intracellular 5β3βS): 48±4% | inhibition of the NMDA response by extracellular steroid (NMDA receptor; in the presence of intracellular 5β3βS): 44±4% | inhibition of the response to 30 μM NMDA (NMDA receptor; 100 μM steroid applied with NMDA, holding potential -70 mV): 59% | inhibition of the 30 μM NMDA response with saturating glycine (NMDA receptor; 100 μM steroid, 10 μM glycine): did not significantly differ from that measured without added glycine | average inhibition of the NMDA response (NMDA receptor; 100 μM steroid, CsCl-containing intracellular solution, 2 cells): 49±5.0% | inhibition of the NMDA response (NMDA receptor; 100 μM steroid, in the presence of 100 μM spermine): 50±5% | inhibition of the peak NMDA response (NMDA receptor; [5]): 59±3% | effect of intracellular steroid on NMDA-induced currents (NMDA receptor; 200 μM steroid in the intracellular buffer): does not inhibit the NMDA-induced currents | inhibition of the peak NMDA response (NMDA receptor; [6]): 50±4% | inhibition of the NMDA response (NMDA receptor; after NEM treatment): 53±5% | inhibition of the NMDA response (NMDA receptor; in the presence of arachidonic acid): 49±5% | IC50 (NMDA receptor; in the absence of PS): 143 µM | IC50 (NMDA receptor; in the presence of 200 μM PS): 120 µM | direct response to steroid applied alone (NMDA receptor; steroid alone at greater than or equal to 100 μM, K+ current, not seen with CsCl intracellular solution): often induced a small outward current | inhibition of the 50 μM kainate-induced current (kainate receptors): 33% | inhibition of the 25 μM AMPA-induced current (AMPA receptors): 43% | inhibition of a near maximal NMDA response (200 μM) ([2]; 200 μM steroid): 54±8% | inhibition of the peak NMDA response [2, 5]: 46±8% | inhibition of the peak NMDA response [2, 6]: 54±5% | IC50 ([2]; IC50, in the absence of PS): 151 µM | IC50 ([2]; IC50, in the presence of 200 μM PS): 124 µM

C[C@]12CC[C@@H]3c4ccc(OC(=O)CCC(=O)O)cc4CC[C@H]3[C@@H]1CC[C@@H]2O [17βE(3)HS, 17β-estradiol-3-hemisuccinate]
behavioral assessment (mice): very minor behavioral impairment | animals that survived the 100 mg/kg NMDA challenge [3]: 75% | seizures and mortality induced by NMDA [4]: effective in blocking seizures and mortality

C[C@]12CC[C@@H]3c4ccc(O)cc4CC[C@H]3[C@@H]1CC[C@@H]2OC(=O)CCC(=O)O [17βE(17)HS, 17β-estradiol-17-hemisuccinate]
behavioral assessment (mice): very minor behavioral impairment | animals that survived the 100 mg/kg NMDA challenge [3]: 50% | seizures and mortality induced by NMDA [4]: effective in blocking seizures and mortality
